Data on seven compounds can be found in patent publication US4740233A, “Substituted 1,2,4-triazolo[1,5-a]-pyrimidine-2-sulfonamides and compositions and methods of controlling undesired vegetation and suppressing the nitrification of ammonium nitrogen in soil” (The Dow Chemical Company, priority 1986, dated 1988).

In assay [1] the test system is barnyardgrass. Nature of the assay: Postemergent control of plant species. The following applies: Echinochloa crus-galli, post-emergence, 336 h, read-out: percent postemergent control. In kind it is in vivo, Echinochloa crusgalli. As to the method: (§1) In representative operations, each compound to be utilized in a series of tests is dissolved in acetone to one-half of the final volume (twice the final concentration) to be used and the acetone solution in each case is admixed with an equal volume of water containing 0.1 percent by weight of surface active material. The compositions, generally in the nature of an emulsion, were employed to spray separate respective plant species which had been grown to a 2-4 leaf stage in soil of good nutrient content in a greenhouse. The various beds were positioned side by side and exposed to substantially identical conditions of temperature and light. Each bed was maintained so as to prevent any interaction with test compounds in different seed beds. Other plants were left untreated to serve as controls. After treatment, the plants were maintained for about two weeks under greenhouse conditions conducive for good plant growth and watered as necessary. Control refers to the reduction in growth compared to the observed results of the same untreated species.

Another assay deals with crabgrass. Nature of the assay: Postemergent control of plant species. The assay is classed as in vivo, Digitaria spp. Conditions: Digitaria sanguinalis, post-emergence, 336 h, read-out: percent postemergent control. As to the method:
as §1

In the next assay the test system is johnson grass. Nature of the assay: Postemergent control of plant species. Conditions: Sorghum halepense, post-emergence, 336 h, read-out: percent postemergent control. The assay is classed as in vivo, Sorghum halepense. The method, then: as §1
Another assay concerns sugar beet. Kind of assay: Postemergent control of plant species. The assay is classed as in vivo, Beta saccharifera. Conditions: Beta vulgaris, post-emergence, 336 h, read-out: percent postemergent control. The method, then:
as §1

Assay [2] concerns nitrification of ammonium nitrogen. Kind of assay: Suppression of nitrification of ammonium nitrogen in soil. The following applies: 27° C. Put shortly: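 Value is % NH4-N remaining after a two-week, 27° C incubation of treated soil held at 1/3 bar tension moisture. Nitrate was measured with an ion-selective electrode after extraction with ammonium sulfate solution and 10 min shaking.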

For a further assay, the system named is yellow foxtail. Kind of assay: Postemergent control of plant species. In kind it is in vivo, Setaria lutescens. The following applies: Setaria, post-emergence, 336 h, read-out: percent postemergent control. As to the method:
as §1

For another assay, the system named is velvetleaf. Kind of assay: Postemergent control of plant species. The assay is classed as in vivo, Abutilon theophrasti. Conditions: Abutilon theophrasti, post-emergence, 336 h, read-out: percent postemergent control. The method, then:
as §1

Another assay concerns soybean. Kind of assay: Postemergent control of plant species. The assay is classed as in vivo, Glycine max. Conditions: Glycine max, post-emergence, 336 h, read-out: percent postemergent control. The method, then: as §1
For the next assay, the system named is sorghum. Kind of assay: Postemergent control of plant species. In kind it is in vivo, Sorghum vulgare. The following applies: Sorghum, post-emergence, 336 h, read-out: percent postemergent control. As to the method: as §1
The subject of the next assay is jimsonweed. Kind of assay: Postemergent control of plant species. In kind it is in vivo, Datura stramonium. The following applies: Datura stramonium, post-emergence, 336 h, read-out: percent postemergent control. The method, then:
as §1

The next assay deals with wild oats. Nature of the assay: Postemergent control of plant species. The assay is classed as in vivo, Avena fatua. The following applies: Avena fatua, post-emergence, 336 h, read-out: percent postemergent control. As to the method: as §1
Another assay relates to rape. Kind of assay: Postemergent control of plant species. In kind it is in vivo, Brassica napus. Conditions: Brassica napus, post-emergence, 336 h, read-out: percent postemergent control. The method, then: as §1
For a further assay, the system named is wheat. Kind of assay: Postemergent control of plant species. The following applies: Triticum aestivum, post-emergence, 336 h, read-out: percent postemergent control. The assay is classed as in vivo, Triticum aestivum. As to the method:
as §1

The subject of assay [3] is yellow nutsedge. Nature of the assay: Postemergent control of plant species. In kind it is in vivo, Cyperus esculentus. The following applies: Cyperus, post-emergence, 336 h, read-out: percent postemergent control. The method, then:
as §1

The test system of assay [4] is rice. Nature of the assay: Postemergent control of plant species. The following applies: Oryza sativa, post-emergence, 336 h, read-out: percent postemergent control. The assay is classed as in vivo, Oryza sativa. As to the method:
as §1

Another assay has as its system annual morning glory. Nature of the assay: Postemergent control of plant species. The assay is classed as in vivo, Ipomoea spp. Conditions: Ipomoea, post-emergence, 336 h, read-out: percent postemergent control. The method, then: as §1
Another assay relates to corn. Nature of the assay: Postemergent control of plant species. The assay is classed as in vivo, Zea mays. The following applies: Zea mays, post-emergence, 336 h, read-out: percent postemergent control. The method, then: as §1
For a further assay, the system named is cotton. Kind of assay: Postemergent control of plant species. The assay is classed as in vivo, Gossypium spp. Conditions: Gossypium hirsutum, post-emergence, 336 h, read-out: percent postemergent control. The method, then:
as §1

For a further assay, the system named is cocklebur. Nature of the assay: Postemergent control of plant species. In kind it is in vivo, Xanthium spp. Conditions: Xanthium strumarium, post-emergence, 336 h, read-out: percent postemergent control. The method, then:
as §1

The subject of assay [5] is yellow nutsedge. Nature of the assay: Control of aquatic plant species (paddy water). Conditions: Cyperus, 216 h, nine days, read-out: Percent control; for pest or weed control at 31 g/ha: 0.031 Kg/Ha; for pest or weed control at 250 g/ha: 0.25 Kg/Ha; for pest or weed control at 500 g/ha: 0.5 Kg/Ha. In kind it is in vivo, Cyperus esculentus. As to the method:
(§2) In testing for such utility, the plant species to be tested were transplanted into 16 oz. containers into about 2 inches of soil when they were in the 1-2 inch stage and then flooded to a depth of about 1 inch. An acetone concentrate of the chemical to be tested was then injected into the paddy water, the volume injected being varied as desired to provide the desired concentration. Percent control was evaluated nine days after application.

For the next assay, the system named is sprangletop. Kind of assay: Control of aquatic plant species (paddy water). In kind it is in vivo, Leptochloa filiformis. Conditions: Leptochloa filiformis, 216 h, nine days, read-out: Percent control; for pest or weed control at 31 g/ha: 0.031 Kg/Ha; for pest or weed control at 250 g/ha: 0.25 Kg/Ha; for pest or weed control at 500 g/ha: 0.5 Kg/Ha. As to the method:
as §2

Assay [6] concerns rice. Nature of the assay: Control of aquatic plant species (paddy water). In kind it is in vivo, Oryza sativa. Conditions: Oryza sativa, 216 h, nine days, read-out: Percent control; for pest or weed control at 31 g/ha: 0.031 Kg/Ha; for pest or weed control at 250 g/ha: 0.25 Kg/Ha; for pest or weed control at 500 g/ha: 0.5 Kg/Ha. The method, then: as §2
For assay [7], the system named is barnyardgrass. Nature of the assay: Control of aquatic plant species (paddy water). The assay is classed as in vivo, Echinochloa crusgalli. Conditions: Echinochloa crus-galli, 216 h, nine days, read-out: Percent control; for pest or weed control at 31 g/ha: 0.031 Kg/Ha; for pest or weed control at 250 g/ha: 0.25 Kg/Ha; for pest or weed control at 500 g/ha: 0.5 Kg/Ha. The method, then: as §2

A further assay has as its system pigweed. Kind of assay: Postemergent control of plant species. The assay is classed as in vivo, Amaranthus spp. Conditions: Amaranthus retroflexus, post-emergence, 336 h, read-out: percent postemergent control. The method, then:
as §1

Consider `Cc1ccc(NS(=O)(=O)c2nc3nc(C)cc(C)n3n2)c(Cl)c1` [Compound 48], for which the pest or weed control at 500 ppm in the assay with barnyardgrass [1] was 0%; in the assay on crabgrass, 0%; with johnson grass it was 0%; in the assay with yellow foxtail, 0%; in the assay with velvetleaf, 40%; with jimsonweed it was 30%. Besides, the pest or weed control at 500 ppm came to 0% in the assay on wild oats, 0% with yellow nutsedge [3], 60% in the assay on annual morning glory and 70% in the assay with cocklebur. Also, the plant injury at 500 ppm with sugar beet is 70%; in the assay on soybean, 55%; in the assay on sorghum, 0%; in the assay on rape it was 75%; in the assay on wheat it was 0%; in the assay on rice [4], 0%. For the same compound, the results for the plant injury at 500 ppm with corn and in the assay on cotton were 0% and 10%, respectively. The “% NH4-N Remaining After 2 Weeks Incubation” value turned out to be 0% in assay [2] (0.01 ppm), 3% in assay [2] (0.1 ppm), 56% in assay [2] (1 ppm) and 93% in assay [2] (10 ppm).

For the compound `Cc1cc(C)n2nc(S(=O)(=O)Nc3c(Br)cccc3Br)nc2n1` [Compound 38], the pest or weed control at 31 g/ha in the assay with yellow nutsedge [5] stood at 95%; in the assay on sprangletop, 0%; with rice [6], 0%; with barnyardgrass [7], 80%. Moreover, the pest or weed control at 250 g/ha came to 97% with yellow nutsedge [5], 85% with sprangletop, 97% in the assay on rice [6] and 99% with barnyardgrass [7]. Further, the “% NH4-N Remaining After 2 Weeks Incubation” value was found to be 46% in [2] (0.01 ppm), 68% in assay [2] (0.1 ppm), 84% in [2] (1 ppm) and 94% in assay [2] (10 ppm).

As to `Cc1ccn2nc(S(=O)(=O)N(C(=O)N(C)C)c3c(Cl)cccc3Cl)nc2n1` [Compound 273], the pest or weed control at 500 ppm in the assay with barnyardgrass [1] came to 20%; in the assay with crabgrass it was 100%; in the assay on pigweed, 100%; in the assay on johnson grass, 30%; with yellow foxtail, 75%; in the assay on velvetleaf, 50%. For the same compound, the pest or weed control at 500 ppm in the assay with jimsonweed came to 100%; in the assay with wild oats, 0%; in the assay on yellow nutsedge [3] it was 40%; with annual morning glory it was 80%; in the assay with cocklebur it was 40%. Moreover, the plant injury at 500 ppm in the assay on sugar beet turned out to be 100%; with soybean, 40%; in the assay on sorghum, 40%; with rape, 100%; with wheat, 0%; with rice [4] it was 20%. For the same compound, the plant injury at 500 ppm with corn was 0%.

In the case of `Cc1cc(C)n2nc(S(=O)(=O)Nc3c(Cl)cccc3I)nc2n1` [Compound 53], the pest or weed control at 31 g/ha stood at 95% in the assay with yellow nutsedge [5], 10% with sprangletop, 0% in the assay with rice [6] and 80% with barnyardgrass [7]. Further, the pest or weed control at 500 g/ha with yellow nutsedge [5] was found to be 99%; in the assay with sprangletop, 97%; with rice [6], 99%; with barnyardgrass [7] it was 99%. In addition, the “% NH4-N Remaining After 2 Weeks Incubation” value in assay [2] (0.01 ppm) is on record as 47%; in assay [2] (0.1 ppm) it was 71%; in [2] (1 ppm), 85%; in assay [2] (10 ppm), 93%.

Consider `Cc1cc(C)n2nc(S(=O)(=O)Nc3ccccc3C)nc2n1` [Compound 2], for which the pest or weed control at 2000 g/ha in the assay with yellow nutsedge [5] (2.0 Kg/Ha) worked out at 93%; in the assay on sprangletop (2.0 Kg/Ha) it was 99%; with rice [6] (2.0 Kg/Ha), 97%; in the assay with barnyardgrass [7] (2.0 Kg/Ha) it was 97%. For the same compound, the “% NH4-N Remaining After 2 Weeks Incubation” value is listed as 0% in assay [2] (0.01 ppm), 0% in [2] (0.1 ppm), 39% in assay [2] (1 ppm) and 78% in assay [2] (10 ppm).

With `Cc1cc(C)n2nc(S(=O)(=O)Nc3c(C)cccc3[N+](=O)[O-])nc2n1` [Compound 49], the pest or weed control at 16 g/ha was found to be 95% with yellow nutsedge [5] (0.016 Kg/Ha), 0% in the assay with sprangletop (0.016 Kg/Ha), 0% in the assay with rice [6] (0.016 Kg/Ha) and 50% in the assay with barnyardgrass [7] (0.016 Kg/Ha). In addition, the pest or weed control at 500 g/ha in the assay on yellow nutsedge [5] amounted to 99%; with sprangletop, 97%; in the assay with rice [6], 97%; with barnyardgrass [7], 97%. Further, the “% NH4-N Remaining After 2 Weeks Incubation” value in assay [2] (0.01 ppm) is 42%; in [2] (0.1 ppm), 77%; in assay [2] (1 ppm) it was 90%; in assay [2] (10 ppm), 99%.

Regarding `CSc1ccccc1NS(=O)(=O)c1nc2nc(C)cc(C)n2n1` [Compound 9], the pest or weed control at 250 g/ha was 30% with yellow nutsedge [5], 80% in the assay on sprangletop, 0% in the assay with rice [6] and 93% in the assay with barnyardgrass [7]. Also, the pest or weed control at 1000 g/ha in the assay on yellow nutsedge [5] (1.0 Kg/Ha) amounted to 85%; with sprangletop (1.0 Kg/Ha), 97%; in the assay on rice [6] (1.0 Kg/Ha) it was 25%; in the assay with barnyardgrass [7] (1.0 Kg/Ha), 99%. Besides, the “% NH4-N Remaining After 2 Weeks Incubation” value in assay [2] (0.01 ppm) was 0%; in assay [2] (0.1 ppm), 14%; in assay [2] (1 ppm), 59%; in assay [2] (10 ppm), 88%.
